Laboratory results: patent US7271198B2, “Method of treating autoimmune diseases” (Wake Forest University, priority 2000, dated 2007)

Assays:
cell-surface CD154 = assay: Flow cytometry of cell-surface CD154 and CD3-ε on SLE T cells; type: cell-based, human
Description: In agreement with previous work (M. Koshy, et al., J. Clin. Invest. 98, 826 (1996); A. Desai-Mehta, et al., J. Clin. Invest. 97, 2063 (1996)), we find that an increased proportion of SLE T cells express cell-surface CD154 compared to normal and disease controls. To determine if TSA-dependent down-regulation of CD154 mRNA reduces surface expression of CD154, SLE T cells were treated for 18 hr with TSA and the proportion of CD154^+ cells quantified by flow cytometry (E. Hagiwara, et al., Arthritis Rheum. 39, 379 (1996)). […] T cells were stained with saturating concentrations of monoclonal FITC-anti-CD3 and PE anti-CD154 antibodies (Caltag Labs, Burlingame, Calif.) for 30 min at 4° C., and the proportion of cells expressing CD3-ε and CD154 was quantified. In sum, these experiments reveal that TSA down-regulates both CD154 mRNA and protein expression, but not GAPDH mRNA or CD3-ε expression, in SLE T cells.

IFN-γ transcript = assay: RT-PCR of IFN-γ transcript in SLE T cells; type: cell-based, human
Description: T cells were cultured in the absence or presence of increasing concentrations of TSA for 18 hr in 5% CO2 at 37° C. RNA was isolated, cDNAs were prepared, and RT-PCR was performed as previously detailed (D. Laxminarayana, et al., J. Clin. Invest. 92, 2207 (1993)). The primers used were: […]
The reaction mixtures were subjected to 30 cycles of denaturation (94° C., 1 min) and annealing for 1 min at 53° C. (CD154), […] (GAPDH) and 55° C. (IL-10 and IFN-γ). Extension was for 2 min at 72° C. with a final extension of 7 min at 72° C. using a DNA thermal cycler (Perkin-Elmer).
Low production of IFN-γ by SLE T cells may reflect down-regulation of gene expression (B. S. Handwerger, et al., in Lupus: Molecular and Cellular Pathogenesis, G. M. Kammer and G. C. Tsokos, Eds. (Humana Press, Totowa, N.J., 1999), chap. 21; E. Hagiwara, et al., Arthritis Rheum. 39, 379 (1996)). To establish whether TSA can up-regulate IFN-γ expression, SLE T cells were treated for 18 hr in the absence or presence of TSA. During that time, TSA induced a three-fold increase in IFN-γ transcript compared to untreated cells (FIG. 3A, lanes 1 and 7, and FIG. 3B). When T cells were activated with PMA+IO in the absence of TSA, peak IFN-γ transcript expression increased 13-fold at 1 hr over basal levels relative to GAPDH transcript, but waned thereafter. […]

IFN-γ mRNA = IFN-γ mRNA in MRL/lpr splenocytes; type: cell-based, mouse
Description: In determining whether TSA can down-regulate IFN-γ mRNA, splenocytes from older, 24-wk MRL/lpr mice were treated with 0 to 500 ng/ml of TSA for 18 hr. […] Compared to splenocytes from 10-wk old mice that had low IFN-γ mRNA (FIG. 8B, lane 1), older mice had higher constitutive levels of IFN-γ transcripts normalized to the housekeeping gene, GAPDH (FIG. 8A, lane 1). […] Maximal inhibition of IFN-γ transcript consistently occurred at 500 ng/ml of TSA.
To establish whether TSA or SAHA down-regulates Con A-induced IFN-γ mRNA expression, splenocytes from 10-wk old mice were stimulated with Con A (10 μg/ml) for 18 hr. From previous kinetic studies, IFN-γ mRNA is maximally expressed when T cells are activated for 18 hr. […] Thus, both TSA and SAHA inhibit IFN-γ. mRNA up-regulation in response to mitogenic stimulation.

IFN-γ protein = IFN-γ protein secretion by MRL/lpr splenocytes; type: cell-based, mouse; conditions: Con A-stimulated splenocytes from younger MRL/lpr mice, 72 hr; p=0.004
Description: The marked inhibition of IFN-γ transcript by these inhibitors prompted us to quantify IFN-γ protein secretion in splenocyte culture supernatants. Over 72 hr, Con A, but not LPS, stimulated splenocytes from younger MRL/lpr mice to secrete a mean (±SEM) 1,563.2±88.3 pg/ml of IFN-γ (FIG. 8D). […] Thus, inhibition of IFN-γ transcription by TSA and SAHA blocks secretion of IFN-γ protein by splenocytes.

IL-6 mRNA = IL-6 mRNA in MRL/lpr splenocytes; type: cell-based, mouse
Description: In determining whether TSA or SAHA down-regulate IL-6 mRNA content, splenocytes from 24-wk MRL/lpr mice were treated with increasing concentrations of TSA for 18 hr. […] TSA decreased IL-6 transcript at a concentration of 100 ng/ml and exerted maximal inhibition at 300 ng/ml. To address whether TSA and SAHA down-regulate LPS- and IFN-γ induced IL-6 transcript levels, splenocytes from younger MRL/lpr mice were treated in the absence or presence of TSA or SAHA for 18 hr before LPS and IFN-γ stimulation for 6 or 18 hr. […] Next, the effect of TSA and SAHA on IL-6 protein secretion in stimulated splenocytes was measured (FIG. 10D). When splenocytes were cultured with LPS and IFN-γ for 72 hr, there was a mean (±SEM) 34.4±7.6 pg/ml of IL-6 protein secretion.

mesangial cells = assay: Nitric oxide production by MRL/lpr mesangial cells; type: cell-based, mouse; conditions: LPS 1 mg/ml, 24 hr
Description: Excessive production of nitric oxide (NO) is crucial to the initiation and maintenance of glomerulonephritis in MRL/lpr mice. Pharmacologic inhibition of NO synthesis in MRL/lpr mice abrogates disease progression. In examining whether HDIs could suppress inducible nitric oxide synthetase (iNOS), splenocytes from 10 wk old mice were stimulated in the presence or absence of TSA or SAHA with LPS and IFN-γ for 24 hr. […] To determine whether HDIs could suppress nitric oxide secretion by mesangial cells, mesangial cells were stimulated with LPS ([…]) in the presence of vehicle or TSA for 24 hr. The supernatant from the cell culture was assayed for nitric oxide.

[1] = splenocytes from 24-wk MRL/lpr mice, 18 hr

CC(/C=C/C(=O)NO)=C\[C@@H](C)C(=O)c1ccc(N(C)C)cc1 [TSA, Trichostatin A]
new population of CD154+ cells induced by PMA+IO (cell-surface CD154; SLE T cells pretreated with TSA 1000 ng/ml 18 hr, PMA+IO 24 hr, P=0.005): completely inhibited
CD3-ε expression (cell-surface CD154; SLE T cells, with or without TSA and PMA+IO): remained stable
reduction of cell-surface CD154+ cells (cell-surface CD154; non-activated SLE T cells, TSA, over 24 hr, vs untreated): did not effect any significant reduction
peak increase in IFN-γ mRNA over untreated cells relative to GAPDH (IFN-γ transcript; SLE T cells activated with PMA+IO in presence of TSA, at 6 hr, P=0.031): 37 fold
increase in IFN-γ transcript compared to untreated cells (IFN-γ transcript; SLE T cells, TSA 18 hr, not activated): three-fold
Con A-induced up-regulation of IFN-γ transcript (IFN-γ mRNA; splenocytes from 10-wk old mice preincubated 18 hr, Con A 10 μg/ml 18 hr, vs vehicle): markedly reduced
TSA concentration of maximal inhibition of IFN-γ transcript (IFN-γ mRNA; splenocytes from 24-wk MRL/lpr mice, 0 to 500 ng/ml TSA, 18 hr): 500 ng/mL
IFN-γ protein secretion (IFN-γ protein): did not secrete detectable levels
TSA concentration of maximal inhibition of IL-6 transcript (IL-6 mRNA; [1]): 300 ng/mL
TSA concentration that decreased IL-6 transcript (IL-6 mRNA; [1]): 100 ng/mL
LPS- and IFN-γ induced IL-6 mRNA (IL-6 mRNA; splenocytes from younger MRL/lpr mice pretreated 18 hr, stimulated 6 or 18 hr): no detectable IL-6 mRNA
LPS-induced nitric oxide production (mesangial cells): able to suppress
